{"source": "ChEMBL document CHEMBL5108059", "about": "“Discovery of 2-Methyl-2-(4-(2-methyl-8-(1H-pyrrolo[2,3-b]pyridin-6-yl)-1H-naphtho[1,2-d]imidazol-1-yl)phenyl)propanenitrile as a Novel PI3K/mTOR Inhibitor with Enhanced Antitumor Efficacy In Vitro and In Vivo” (J Med Chem, 2022)", "key": {"[1]": {"biological_target": "Phosphatidylinositol 4,5-bisphosphate 3-kinase catalytic subunit gamma isoform (Homo sapiens, UniProt P48736)", "sequence (P48736 whole entry, canonical isoform)": "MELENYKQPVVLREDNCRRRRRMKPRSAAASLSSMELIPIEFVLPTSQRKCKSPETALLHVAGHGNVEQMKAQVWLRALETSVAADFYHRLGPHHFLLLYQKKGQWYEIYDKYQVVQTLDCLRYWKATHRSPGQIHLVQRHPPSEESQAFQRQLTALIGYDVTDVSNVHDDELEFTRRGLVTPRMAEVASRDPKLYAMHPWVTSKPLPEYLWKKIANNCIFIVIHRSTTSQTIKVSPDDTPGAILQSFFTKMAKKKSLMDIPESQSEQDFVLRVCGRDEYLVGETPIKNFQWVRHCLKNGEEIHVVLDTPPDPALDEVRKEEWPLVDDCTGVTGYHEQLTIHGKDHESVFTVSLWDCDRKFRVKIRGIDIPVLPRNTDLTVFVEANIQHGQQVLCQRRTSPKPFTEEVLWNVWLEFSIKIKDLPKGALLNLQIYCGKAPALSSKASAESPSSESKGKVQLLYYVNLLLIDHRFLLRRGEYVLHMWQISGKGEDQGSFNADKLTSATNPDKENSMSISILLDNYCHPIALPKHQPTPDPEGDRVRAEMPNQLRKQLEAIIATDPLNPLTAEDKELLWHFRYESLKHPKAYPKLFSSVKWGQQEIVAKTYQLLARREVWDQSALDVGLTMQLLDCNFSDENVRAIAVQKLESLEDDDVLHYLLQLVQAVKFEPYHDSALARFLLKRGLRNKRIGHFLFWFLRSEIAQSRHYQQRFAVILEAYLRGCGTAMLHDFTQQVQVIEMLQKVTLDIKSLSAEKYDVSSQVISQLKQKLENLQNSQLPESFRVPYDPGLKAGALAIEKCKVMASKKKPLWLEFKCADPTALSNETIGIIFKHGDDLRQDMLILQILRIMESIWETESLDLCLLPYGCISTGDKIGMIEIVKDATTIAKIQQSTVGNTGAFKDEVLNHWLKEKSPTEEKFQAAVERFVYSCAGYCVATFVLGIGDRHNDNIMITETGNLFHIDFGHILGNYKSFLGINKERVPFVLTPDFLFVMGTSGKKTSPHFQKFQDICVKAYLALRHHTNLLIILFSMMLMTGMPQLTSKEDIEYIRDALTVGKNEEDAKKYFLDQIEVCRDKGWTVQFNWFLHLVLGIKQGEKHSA", "test": "Inhibition of PI3Kgamma (unknown origin) using L-alpha-phosphatidylinositol as substrate incubated for 120 mins in presence of ATP by Kinase Glo luminescence assay"}, "SW-620 [2]": {"tested_on": "SW-620", "test": "Antiproliferative activity against human SW620 cells assessed as inhibition of cell growth incubated for 48 to 72 hrs by MTT assay", "type": "functional, cell-based"}, "HeLa [3]": {"tested_on": "HeLa", "test": "Induction of apoptosis in human HeLa cells assessed as viable cells at 0.625 uM incubated for 36 hrs by Annexin V-FITC/PI staining based flow cytometric analysis (reference value: 96.14 %)", "type": "functional", "conditions": "read-out: Activity"}, "[4]": {"biological_target": "Phosphatidylinositol 4,5-bisphosphate 3-kinase catalytic subunit beta isoform (Homo sapiens, UniProt P42338)", "sequence (P42338 whole entry, canonical isoform)": "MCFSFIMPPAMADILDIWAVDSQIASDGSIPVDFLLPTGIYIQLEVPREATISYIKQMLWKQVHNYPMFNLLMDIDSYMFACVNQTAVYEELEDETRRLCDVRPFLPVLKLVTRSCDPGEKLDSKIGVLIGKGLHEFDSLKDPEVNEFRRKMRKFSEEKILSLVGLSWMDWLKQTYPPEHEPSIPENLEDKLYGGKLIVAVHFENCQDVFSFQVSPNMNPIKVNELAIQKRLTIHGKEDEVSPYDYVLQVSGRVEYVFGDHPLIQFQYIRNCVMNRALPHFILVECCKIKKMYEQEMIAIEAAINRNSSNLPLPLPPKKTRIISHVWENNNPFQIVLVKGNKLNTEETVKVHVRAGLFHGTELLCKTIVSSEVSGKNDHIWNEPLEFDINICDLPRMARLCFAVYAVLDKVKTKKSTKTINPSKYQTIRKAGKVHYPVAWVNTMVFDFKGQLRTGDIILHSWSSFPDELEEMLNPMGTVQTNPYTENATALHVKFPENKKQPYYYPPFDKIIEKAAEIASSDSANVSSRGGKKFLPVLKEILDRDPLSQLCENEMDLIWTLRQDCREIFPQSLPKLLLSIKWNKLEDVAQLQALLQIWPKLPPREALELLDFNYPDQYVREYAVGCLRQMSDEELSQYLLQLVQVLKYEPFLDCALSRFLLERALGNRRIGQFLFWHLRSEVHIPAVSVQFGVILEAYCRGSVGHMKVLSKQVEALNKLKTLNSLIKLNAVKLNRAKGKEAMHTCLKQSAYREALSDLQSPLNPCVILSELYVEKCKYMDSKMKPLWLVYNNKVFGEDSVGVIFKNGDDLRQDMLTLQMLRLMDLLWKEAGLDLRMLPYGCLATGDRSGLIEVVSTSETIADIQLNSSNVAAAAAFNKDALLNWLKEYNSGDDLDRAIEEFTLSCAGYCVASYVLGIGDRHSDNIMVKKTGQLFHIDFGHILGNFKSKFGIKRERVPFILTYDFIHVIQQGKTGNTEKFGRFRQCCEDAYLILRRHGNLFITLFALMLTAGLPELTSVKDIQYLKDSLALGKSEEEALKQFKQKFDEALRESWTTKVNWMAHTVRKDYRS", "test": "Inhibition of PI3Kbeta (unknown origin) using L-alpha-phosphatidylinositol as substrate incubated for 60 mins in presence of ATP by Kinase Glo luminescence assay"}, "[5]": {"test": "Tmax in Sprague-Dawley rat at 10 mg/kg, po measured for 24 hrs by LC-MS/MS analysis", "type": "ADME, organism-based", "conditions": "in vivo"}, "HeLa [6]": {"tested_on": "HeLa", "test": "Induction of apoptosis in human HeLa cells assessed as dead cells at 0.3125 uM incubated for 36 hrs by Annexin V-FITC/PI staining based flow cytometric analysis (reference value: 0.44 %)", "type": "functional"}, "HeLa [7]": {"tested_on": "HeLa", "test": "Induction of apoptosis in human HeLa cells assessed as late apoptotic cells at 0.3125 uM incubated for 36 hrs by Annexin V-FITC/PI staining based flow cytometric analysis (reference value: 1.4 %)", "type": "functional"}, "SW-620 [8]": {"tested_on": "SW-620", "test": "Antitumor activity against human SW620 cells xenografted in BALB/c nude mouse assessed as tumor growth inhibition at 15 mg/kg, IG administered daily for 30 days and measured every 2 days relative to control", "type": "functional", "conditions": "SW-620, po, 720 h, time 30 day, read-out: TGI"}, "HeLa [9]": {"tested_on": "HeLa", "test": "Induction of apoptosis in human HeLa cells assessed as viable cells at 0.15625 uM incubated for 36 hrs by Annexin V-FITC/PI staining based flow cytometric analysis (reference value: 96.14 %)", "type": "functional", "conditions": "read-out: Activity"}, "[10]": {"test": "Cmax in Sprague-Dawley rat at 10 mg/kg, po measured for 24 hrs by LC-MS/MS analysis", "type": "ADME, organism-based", "parameters": "time 24 hrs, dose 10 mg/kg, route po", "conditions": "in vivo"}, "HeLa [11]": {"tested_on": "HeLa", "test": "Inhibition of colony formation in human HeLa cells assessed as reduction in colony forming ability at 0.625 uM incubated for 15 days by crystal violet staining based analysis", "type": "functional", "conditions": "360 h, time 15 day"}, "NCI-H446": {"tested_on": "NCI-H446", "test": "Antiproliferative activity against PTEN-null human NCI-H446 cells assessed as inhibition of cell growth incubated for 48 to 72 hrs by MTT assay", "type": "functional, cell-based"}, "[12]": {"biological_target": "Phosphatidylinositol 4,5-bisphosphate 3-kinase catalytic subunit alpha isoform (Homo sapiens, UniProt P42336)", "sequence (P42336 whole entry, canonical isoform)": "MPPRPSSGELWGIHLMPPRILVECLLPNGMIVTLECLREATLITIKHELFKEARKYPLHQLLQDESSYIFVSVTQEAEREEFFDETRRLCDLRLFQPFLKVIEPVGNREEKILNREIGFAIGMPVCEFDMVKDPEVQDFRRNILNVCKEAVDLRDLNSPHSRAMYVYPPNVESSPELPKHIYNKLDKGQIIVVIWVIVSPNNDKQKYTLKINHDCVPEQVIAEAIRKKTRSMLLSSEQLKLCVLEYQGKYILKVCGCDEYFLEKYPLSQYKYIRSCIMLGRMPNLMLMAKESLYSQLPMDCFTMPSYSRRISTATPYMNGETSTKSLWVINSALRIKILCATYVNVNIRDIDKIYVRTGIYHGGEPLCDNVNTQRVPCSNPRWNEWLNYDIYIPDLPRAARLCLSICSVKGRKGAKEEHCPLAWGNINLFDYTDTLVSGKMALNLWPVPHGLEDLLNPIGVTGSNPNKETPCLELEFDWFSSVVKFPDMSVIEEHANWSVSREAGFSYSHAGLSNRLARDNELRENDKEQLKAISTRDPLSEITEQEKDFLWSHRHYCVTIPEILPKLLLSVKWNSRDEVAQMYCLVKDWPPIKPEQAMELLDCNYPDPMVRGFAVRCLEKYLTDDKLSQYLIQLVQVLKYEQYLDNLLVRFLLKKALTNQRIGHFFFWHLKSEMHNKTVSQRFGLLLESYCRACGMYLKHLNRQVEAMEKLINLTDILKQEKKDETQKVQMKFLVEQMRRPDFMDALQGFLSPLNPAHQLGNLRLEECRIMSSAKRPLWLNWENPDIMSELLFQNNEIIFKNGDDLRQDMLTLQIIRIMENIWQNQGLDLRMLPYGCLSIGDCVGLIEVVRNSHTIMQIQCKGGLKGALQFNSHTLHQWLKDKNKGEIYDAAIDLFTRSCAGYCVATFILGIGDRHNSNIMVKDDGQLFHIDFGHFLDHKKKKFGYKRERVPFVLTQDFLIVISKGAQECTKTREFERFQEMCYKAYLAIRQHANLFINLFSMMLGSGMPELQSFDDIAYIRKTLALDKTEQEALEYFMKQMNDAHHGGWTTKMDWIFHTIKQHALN", "test": "Inhibition of PI3Kalpha (unknown origin) using PIP2 as substrate incubated for 1 hr in presence of ATP by Kinase Glo luminescence assay"}, "[13]": {"test": "Toxicity in BALB/c nude mouse xenografted with human HeLa cells assessed as pathological changes in spleen at 60 mg/kg, IG administered daily for 30 days by hematoxylin and eosin staining based microscopic analysis", "type": "organism-based", "conditions": "in vivo, po, 720 h, time 30 day"}, "Mus musculus": {"tested_on": "Mus musculus", "test": "In vivo inhibition of PI3K/mTOR signalling pathway in BALB/c nude mouse xenografted with human HeLa cells assessed as downregulation of pS6 protein expression in tumor at 15 to 60 mg/kg, IG administered daily for 30 days", "type": "functional, organism-based", "conditions": "dose 15-60 mg/kg, time 30.0 day"}, "SW-620 [14]": {"tested_on": "SW-620", "test": "Antitumor activity against human SW620 cells xenografted in BALB/c nude mouse assessed as tumor growth inhibition at 60 mg/kg, IG administered daily for 30 days and measured every 2 days relative to control", "type": "functional", "conditions": "SW-620, po, 720 h, time 30 day, read-out: TGI"}, "HeLa [15]": {"tested_on": "HeLa", "test": "Antiproliferative activity against human HeLa cells assessed as inhibition of cell growth incubated for 48 to 72 hrs by MTT assay", "type": "functional, cell-based"}, "[16]": {"test": "Toxicity in BALB/c nude mouse xenografted with human SW620 cells assessed as reduction in body weight at 15 to 60 mg/kg, IG administered daily for 30 days and measured every 2 days", "type": "organism-based, SW-620", "conditions": "in vivo, po, 720 h, dose 15-60 mg/kg, time 30 day"}, "HeLa [17]": {"tested_on": "HeLa", "test": "Antitumor activity against human HeLa cells xenografted in BALB/c nude mouse assessed as reduction in Ki67 expression in tumor administered intragastrically daily for 30 days by immunohistochemical analysis", "type": "functional", "conditions": "dose 15-60 mg/kg, route ig, time 30.0 day"}, "HeLa [18]": {"tested_on": "HeLa", "test": "Inhibition of PI3K/mTOR signalling pathway in human HeLa cells assessed as inhibition of Akt phosphorylation at Ser473 residue incubated for 24 hrs by Western blot analysis", "type": "cell-based", "conditions": "dose 0.3125-2.5 µM, DDE = dose-dependent effect"}, "[19]": {"test": "Half life in Sprague-Dawley rat at 10 mg/kg, po measured for 24 hrs by LC-MS/MS analysis", "type": "ADME, organism-based", "conditions": "in vivo"}, "HeLa [20]": {"tested_on": "HeLa", "test": "Induction of apoptosis in human HeLa cells assessed as viable cells at 2.5 uM incubated for 36 hrs by Annexin V-FITC/PI staining based flow cytometric analysis (reference value: 96.14 %)", "type": "functional", "conditions": "read-out: Activity"}, "[21]": {"test": "Half life in Sprague-Dawley rat at 1 mg/kg, iv measured for 24 hrs by LC-MS/MS analysis", "type": "ADME, organism-based", "conditions": "in vivo"}, "SW-620 [22]": {"tested_on": "SW-620", "test": "Inhibition of colony formation in human SW620 cells assessed as reduction in colony forming ability incubated for 15 days by crystal violet staining based analysis", "type": "functional, cell-based", "conditions": "dose 0.15625-1.25 µM, time 15.0 day, DDE = dose-dependent effect"}}, "note": "Activity calls are given as the source filed them. The calls are words filed in the database; no cut-off is given here.", "data": [{"smiles": "Cc1nc2cnc3ccc(-c4cnc5[nH]ccc5c4)cc3c2n1-c1ccc(C(C)(C)C#N)nc1", "values": [{"measurement": "IC50", "setting": "[1]", "value": 5, "unit": "nM"}, {"measurement": "IC50", "setting": "SW-620 [2]", "value": 160, "unit": "nM"}, {"measurement": "viability at 0.625 µM", "setting": "HeLa [3]", "value": 70.1, "unit": "%"}, {"measurement": "IC50", "setting": "[4]", "value": 75, "unit": "nM"}, {"measurement": "Tmax", "setting": "[5]", "value": 0.75, "unit": "h"}, {"measurement": "Activity", "setting": "HeLa [6]", "value": 0.84, "unit": "%"}, {"measurement": "Activity", "setting": "HeLa [7]", "value": 3, "unit": "%"}, {"measurement": "inhibition in vivo at 15 mg/kg", "setting": "SW-620 [8]", "value": 60.6, "unit": "%"}, {"measurement": "viability at 0.1562 µM", "setting": "HeLa [9]", "value": 93.5, "unit": "%"}, {"measurement": "Cmax", "setting": "[10]", "value": 2995, "unit": "ng/mL"}, {"measurement": "inhibition at 0.625 µM", "setting": "HeLa [11]", "value": 100, "unit": "%"}, {"measurement": "IC50", "setting": "NCI-H446", "value": 970, "unit": "nM"}, {"measurement": "IC50", "setting": "[12]", "value": 3.5, "unit": "nM"}, {"measurement": "Activity", "setting": "[13]", "value": "Non-Toxic"}, {"measurement": "inhibition", "setting": "Mus musculus", "value": "Active"}, {"measurement": "inhibition in vivo at 60 mg/kg", "setting": "SW-620 [14]", "value": 81, "unit": "%"}, {"measurement": "IC50", "setting": "HeLa [15]", "value": 90, "unit": "nM"}, {"measurement": "Activity", "setting": "[16]", "value": "Non-Toxic"}, {"measurement": "Activity", "setting": "HeLa [17]", "value": "Active"}, {"measurement": "inhibition", "setting": "HeLa [18]", "value": "Dde"}, {"measurement": "t1/2", "setting": "[19]", "value": 2.6, "unit": "h"}, {"measurement": "viability at 2.5 µM", "setting": "HeLa [20]", "value": 27.8, "unit": "%"}, {"measurement": "half-life", "setting": "[21]", "value": 1.16, "unit": "h"}, {"measurement": "inhibition", "setting": "SW-620 [22]", "value": "Dde"}]}]}
